The text below walks through data of patent publication US20040014696A1, “Specificity in treatment of diseases” (priority 2003, published 2004).

The nature of series [1]: Toxicity findings (hemolytic anemia, RBCs) in Rhesus monkeys. The note with it: 60 mg/kg followed by 30 mg/kg*day for 10 days.
Series [2] in a line: RBC radioactivity in mice after repeated oral dosing. In kind it is in vivo. To be noted: oral 300 mg/kg daily for 8 days; for Medium RBC Radioactivity (Mice): Cmin in RBCs.
Series [3] in a line: Liver radioactivity in mice after repeated oral dosing. In kind it is in vivo. The note with it: oral 300 mg/kg daily for 8 days; for Total Liver Radioactivity: Cmin in liver; for Modified Ribavirin in liver: analyte modified Ribavirin.
A short description of series [4]: RBC radioactivity in portal vein-cannulated cynomolgus monkeys. To be noted: for Medium RBC Radioactivity (Monkeys - multiple doses) / Medium RBC Radioactivity (Monkeys - single dose) / Time to peak radioactivity concentration in RBC: cynomolgus monkeys; for Medium RBC Radioactivity (Monkeys - multiple doses): projected steady state; for Medium RBC Radioactivity (Monkeys - single dose) / Time to peak radioactivity concentration in RBC: single oral dose 30 mg/kg.

The nature of series [5]: Liver radioactivity estimated from portal vs systemic plasma in portal vein-cannulated monkeys. It counts as in vivo.
Series [6] relates to RBCs. Description: In vitro transport into RBCs. It counts as cell-based. To be noted: in vitro studies (data not shown).
For series [7], the target named is T1, Adenosine deaminase (ADA) (Bos taurus, UniProt P56658).
T1 construct: Adenosine deaminase (ADA) isolated from calf intestine; purchased Boehringer Mannheim; host or cells: calf intestine (tissue-isolated)
T1 sequence (P56658 1-363): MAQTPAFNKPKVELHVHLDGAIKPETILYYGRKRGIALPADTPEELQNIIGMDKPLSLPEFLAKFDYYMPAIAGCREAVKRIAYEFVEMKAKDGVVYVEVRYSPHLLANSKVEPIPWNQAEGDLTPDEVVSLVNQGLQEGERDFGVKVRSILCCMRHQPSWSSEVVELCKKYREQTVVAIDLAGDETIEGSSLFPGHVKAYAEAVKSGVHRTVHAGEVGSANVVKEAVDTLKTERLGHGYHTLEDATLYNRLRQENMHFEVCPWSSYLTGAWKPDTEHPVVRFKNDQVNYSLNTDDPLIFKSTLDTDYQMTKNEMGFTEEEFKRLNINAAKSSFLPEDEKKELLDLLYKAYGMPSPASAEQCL
Description: In vitro deamination by adenosine deaminase (UV 240 nm, mass spectrum). In kind it is biochemical, calf. To be noted: 0.2 mM compound with 0.5 μM ADA overnight, mass spectrum analysis. The procedure:
Adenosine deaminase (ADA) isolated from calf intestine was purchased from Boehringer Mannheim. The assay was performed in Dulbecco's PBS buffer (Na2HPO4, 8 mM; […] KCl, 2.7 mM; NaCl, 138 mM; pH 7.2) at room temperature (23° C.). […] Taking the limit of the UV assay method, the spontaneous hydrolysis of viramidine will be less than 2.5×10^−5 min^−1. […] The enzyme turnover number was estimated about 2.5 min^−1 at the current assay condition.

The subject of series [8] is erythrocytes. Description: Phosphorylation in erythrocytes. It counts as cell-based. An excerpt:
For example, the selectivity of the pharmacological effect of 1-beta-D-ribofuranosyl-1,2,4-triazole-3-carboxamide (Ribavirin, Structure 1) is increased by covalently coupling an ═NH group to Ribavirin to form a carboxamidine group. Ribavirin is known to have antiviral properties in hepatitis virus-infected hepatocytes (e.g., see review Marcellin, P. and Benhamou J.; Treatment of chronic viral hepatitis, Baillieres Clin Gastroenteol 1994 June; 8(2):233-53). It is also known, that Ribavirin is readily phosphorylated in erythrocytes to the pharmacologically active form Ribavirin-phosphate at a significant rate (e.g., Homma, M. et al. High-performance liquid chromatographic determination of Ribavirin in whole blood to assess disposition in erythrocytes; Antimicrob Agents Chemother 1999 November; 43(11):2716-9), which reduces the selective pharmacological effect.

A short description of series [9]: Spontaneous hydrolysis in Dulbecco's PBS buffer without enzyme. It counts as physicochemical. The procedure:
Adenosine deaminase (ADA) isolated from calf intestine was purchased from Boehringer Mannheim. The assay was performed in Dulbecco's PBS buffer (Na2HPO4, 8 mM; […] KCl, 2.7 mM; NaCl, 138 mM; pH 7.2) at room temperature (23° C.). […] Taking the limit of the UV assay method, the spontaneous hydrolysis of viramidine will be less than 2.5×10^−5 min^−1.

Regarding `NC(=O)c1ncn([C@@H]2O[C@H](CO)[C@@H](O)[C@H]2O)n1` [Ribavirin, 1-beta-D-ribofuranosyl-1,2,4-triazole-3-carboxamide, reference compound], the “Toxicity findings on RBCs” value in series [1] is “suffered from hemolytic anemia and significant decrease in RBCs”. Moreover, the “Medium RBC Radioactivity (Mice)” value in series [2] was 1.36 μg equiv/g. In series [3], the “Total Liver Radioactivity” value is recorded as 18.4 μg equiv/g and the “Modified Ribavirin in liver” value is given as “not detected”. For the same molecule, the “Radioactivity concentration Cmin in the liver, comparison” value in series [3] (Ribavirin compared to modified Ribavirin) is reported as “significantly lower”. Moreover, in series [4] (multiple dosing at 30 mg/kg), the “Medium RBC Radioactivity (Monkeys - multiple doses)” value is “˜5089 μg equiv/g”. In addition, in series [4], the “Medium RBC Radioactivity (Monkeys - single dose)” value is given as “˜41 μg equiv/g” and the “Time to peak radioactivity concentration in RBC” value amounted to 24 h. In addition, the “Projected steady-state RBC radioactivity concentrations, comparison” value in series [4] (multiple dosing at 30 mg/kg, Ribavirin compared to modified Ribavirin) is given as “significantly higher”.
Regarding `N=C(N)c1ncn([C@@H]2O[C@H](CO)[C@@H](O)[C@H]2O)n1` [modified Ribavirin, 1-beta-D-ribofuranosyl-1,2,4-triazole-3-carboxamidine], the “Toxicity findings on RBCs” value in series [1] is reported as “no significant changes in RBCs”. Besides, the “RBC radioactivity as compared to Ribavirin” value in [5] (monkeys) is approximately 12%. The “Liver radioactivity concentration, higher than after oral dosing of Ribavirin” value in [5] (portal vein-cannulated monkeys, oral administration) is “approximately 50%”. Moreover, in [6], the “Transport into RBCs” value is reported as “not directly transported into RBCs”. For the same molecule, in series [7], the “Conversion to Ribavirin” value is given as “more than 75%”. In [2], the “Medium RBC Radioactivity (Mice)” value is 0.38 μg equiv/g. Besides, the “Radioactivity concentration Cmin in RBCs, comparison” value in [2] (modified Ribavirin vs Ribavirin) is given as “significantly lower”. For the same molecule, in [3], the “Share of liver radioactivity accounted for by modified Ribavirin” value is “about 30%”, the “Total Liver Radioactivity” value is reported as 23.8 μg equiv/g and the “Modified Ribavirin in liver” value was “˜7.2 μg eguiv/g μg equiv/g”. The RTCA in liver entry in series [3] (analyte RTCA) is on record as “not detected”. Also, in [8], the Phosphorylation in erythrocytes entry is on record as “is not, or is only insignificantly phosphorylated in erythrocytes”. Besides, in series [9] (limit of the UV assay method, pH 7.2), the Spontaneous hydrolysis rate entry is “less than 2.5×10^−5 min^−1”. Also, the “Spontaneous hydrolysis in buffer” value in [9] (no enzyme, pH 7.2, 1.5 h, 23° C.) is “no spontaneous hydrolysis”. For the same molecule, the “Effect of zinc ion on spontaneous hydrolysis rate” value in series [9] (zinc ion added to the buffer) is reported as “does not enhance the spontaneous hydrolysis rate”. Besides, in series [4] (multiple dosing at 30 mg/kg), the “Medium RBC Radioactivity (Monkeys - multiple doses)” value was “˜606 μg equiv/g”. In [4], the “Medium RBC Radioactivity (Monkeys - single dose)” value is reported as “˜17 μg equiv/g” and the “Time to peak radioactivity concentration in RBC” value is 24 h.
